Tests used:
[1] = molecular target: T1, Sodium/glucose cotransporter 2 (Homo sapiens, UniProt P31639); assay: Inhibition of human kidneyl SGLT2 expressed in CHOK1 cells assessed as reduction in Na-dependent [14C]-AMG uptake preincubated for 10 mins followed by [14C]-AMG addition measured after 2 hrs by TopCount method; assay type: cell-based
T1 sequence (P31639 whole entry): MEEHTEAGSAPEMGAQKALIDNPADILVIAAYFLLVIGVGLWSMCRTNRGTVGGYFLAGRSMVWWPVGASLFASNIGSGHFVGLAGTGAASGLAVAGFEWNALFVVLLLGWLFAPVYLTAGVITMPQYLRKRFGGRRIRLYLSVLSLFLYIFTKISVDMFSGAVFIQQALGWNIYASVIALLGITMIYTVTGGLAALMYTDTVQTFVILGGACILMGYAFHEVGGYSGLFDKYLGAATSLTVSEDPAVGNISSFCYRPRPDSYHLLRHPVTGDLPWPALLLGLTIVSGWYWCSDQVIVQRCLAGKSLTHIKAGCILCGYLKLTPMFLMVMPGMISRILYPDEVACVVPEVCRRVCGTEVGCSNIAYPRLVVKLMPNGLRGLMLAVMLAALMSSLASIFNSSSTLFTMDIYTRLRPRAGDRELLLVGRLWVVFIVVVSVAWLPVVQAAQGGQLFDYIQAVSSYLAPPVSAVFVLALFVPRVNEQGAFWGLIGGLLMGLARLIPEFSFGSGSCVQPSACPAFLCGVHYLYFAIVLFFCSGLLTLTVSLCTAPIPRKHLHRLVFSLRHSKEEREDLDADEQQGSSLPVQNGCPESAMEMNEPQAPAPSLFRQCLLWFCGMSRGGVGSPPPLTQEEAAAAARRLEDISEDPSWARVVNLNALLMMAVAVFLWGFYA

[2] = Metabolic stability in human liver microsomes at 1 uM after 10 mins in presence of NADPH; assay type: ADME, microsome; conditions: read-out: Stability
[3] = Metabolic stability in mouse liver microsomes at 1 uM after 10 mins in presence of NADPH; assay type: ADME, microsome; conditions: read-out: Stability
[4] = Metabolic stability in rat liver microsomes at 1 uM after 10 mins in presence of NADPH; assay type: ADME, microsome; conditions: read-out: Stability
[5] = Half life in human hepatocytes at 1 uM; assay type: ADME, cell-based, Hepatocyte
[6] = Half life in Sprague-Dawley rat hepatocytes at 1 uM; assay type: ADME, cell-based, Hepatocyte
[7] = Half life in dog hepatocytes at 1 uM; assay type: ADME, cell-based, Canis lupus familiaris, Hepatocyte
[8] = Half life in monkey hepatocytes at 1 uM; assay type: ADME, cell-based, Macaca mulatta, Hepatocyte; conditions: rhesus monkey
[9] = molecular target: T2, SGLT1 (sodium/glucose cotransporter 1) (Homo sapiens, UniProt P13866); assay: Inhibition of human small intestinal SGLT1 expressed in CHOK1 cells assessed as reduction in Na-dependent [14C]-AMG uptake at 0.3 uM preincubated for 10 mins followed by [14C]-AMG addition measured after 2 hrs by TopCount method relative to control; assay type: cell-based; conditions: CHO-K1 cells expressing human SGLT1, probe [14C]-AMG
T2 sequence (P13866 whole entry): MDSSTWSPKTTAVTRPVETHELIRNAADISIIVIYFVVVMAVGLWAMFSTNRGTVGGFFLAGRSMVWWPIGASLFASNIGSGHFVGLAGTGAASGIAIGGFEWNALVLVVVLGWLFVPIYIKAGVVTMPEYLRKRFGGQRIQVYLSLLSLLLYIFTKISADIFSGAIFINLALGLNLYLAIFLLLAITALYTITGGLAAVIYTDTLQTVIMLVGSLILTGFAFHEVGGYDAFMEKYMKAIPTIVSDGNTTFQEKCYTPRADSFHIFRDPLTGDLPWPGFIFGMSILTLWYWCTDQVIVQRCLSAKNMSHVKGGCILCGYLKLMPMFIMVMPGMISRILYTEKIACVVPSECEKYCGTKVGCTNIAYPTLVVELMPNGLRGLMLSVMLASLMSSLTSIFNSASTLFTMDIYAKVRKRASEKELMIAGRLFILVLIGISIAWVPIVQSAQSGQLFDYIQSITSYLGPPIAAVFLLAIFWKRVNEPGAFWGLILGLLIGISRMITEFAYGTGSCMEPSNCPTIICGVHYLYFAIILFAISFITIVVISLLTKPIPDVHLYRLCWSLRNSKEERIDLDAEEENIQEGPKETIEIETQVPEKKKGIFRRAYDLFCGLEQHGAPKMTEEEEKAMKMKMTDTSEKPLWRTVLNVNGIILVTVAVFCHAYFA

[10] = molecular target: T3, Sodium/glucose cotransporter 2 (Homo sapiens) (UniProt P31639); assay: Inhibition of human kidneyl SGLT2 expressed in CHOK1 cells assessed as reduction in Na-dependent [14C]-AMG uptake at 0.3 uM preincubated for 10 mins followed by [14C]-AMG addition measured after 2 hrs by TopCount method relative to control; assay type: cell-based
T3 sequence (whole entry): T1 sequence (P31639 whole entry)

[11] = Half life in Sprague-Dawley rat at 2 mg/kg, iv; assay type: ADME, organism-based; conditions: in vivo
[12] = Clearance in Sprague-Dawley rat at 2 mg/kg, iv; assay type: ADME, organism-based; conditions: in vivo
[13] = Volume of distribution at steady state in Sprague-Dawley rat at 2 mg/kg, iv; assay type: ADME, organism-based; conditions: in vivo, read-out: Vdss
[14] = Cmax in Sprague-Dawley rat at 10 mg/kg, po; assay type: ADME, organism-based; set-up: dose 10 mg/kg, route oral; conditions: in vivo
[15] = Tmax in Sprague-Dawley rat at 10 mg/kg, po; assay type: ADME, organism-based; conditions: in vivo
[16] = AUC (0 to infinity) in Sprague-Dawley rat at 10 mg/kg, po; assay type: ADME, organism-based; set-up: dose 10 mg/kg, route oral, time infinity; conditions: in vivo
[17] = Oral bioavailability in Sprague-Dawley rat at 10 mg/kg; assay type: ADME, organism-based; conditions: in vivo
[18] = Half life in Sprague-Dawley rat at 10 mg/kg, po; assay type: ADME, organism-based; conditions: in vivo

COc1c([C@@H]2O[C@H](CO)[C@@H](F)[C@H](O)[C@H]2O)cc(Cc2ccc3c(c2)SCCO3)c2c1CCO2
IC50 [1]: 8.3 nM
remaining at 10 min, 1 µM [2]: 73%
remaining at 10 min, 1 µM [3]: 61%
remaining at 10 min, 1 µM [4]: 12%

COc1cc(C)c(Cc2cc3c(s2)CCN(C#N)C3)cc1[C@@H]1O[C@H](CO)[C@@H](F)[C@H](O)[C@H]1O
IC50 [1]: 5.3 nM

Cc1cc(O)c([C@@H]2O[C@H](CO)[C@@H](F)[C@H](O)[C@H]2O)cc1Cc1cc2c(s1)CCN(C(=O)N1CCCC1)C2
IC50 [1]: 13.6 nM
remaining at 10 min, 1 µM [2]: 71%
remaining at 10 min, 1 µM [3]: 74%
remaining at 10 min, 1 µM [4]: 82%

O=C(O)Cc1ccccc1Nc1c(Cl)cccc1Cl [DICLOFENAC]
half-life at 1 µM [5]: 0.7 h
half-life at 1 µM [6]: 0.8 h
half-life at 1 µM [7]: 5.2 h
half-life at 1 µM [8]: 1 h

OC[C@H]1O[C@@H](c2cc(Cc3ccc4c(c3)OCCO4)c(O)c3c2OCC3)[C@H](O)[C@@H](O)[C@@H]1F
inhibition at 2 h, 0.3 µM [9]: 31%
inhibition [10]: 26%

OC[C@H]1O[C@@H](c2cc(Cc3ccc4c(c3)OCCO4)c3c(c2O)CCO3)[C@H](O)[C@@H](O)[C@@H]1F
remaining at 10 min, 1 µM [2]: 97%
remaining at 10 min, 1 µM [3]: 97%
remaining at 10 min, 1 µM [4]: 64%
half-life [11]: 0.31 h
clearance [12]: 28.1 mL/min/kg
Vd [13]: 1.22 L/kg
Cmax [14]: 168 ng/mL
Tmax [15]: 0.25 h
AUC(0-inf) [16]: 307 ng·h/mL
bioavailability [17]: 4%

CCOC(=O)N1CCc2sc(Cc3cc([C@@H]4O[C@H](CO)[C@@H](F)[C@H](O)[C@H]4O)c(O)cc3C)cc2C1
remaining at 10 min, 1 µM [2]: 80%
remaining at 10 min, 1 µM [3]: 86%
remaining at 10 min, 1 µM [4]: 78%

COc1c(Cc2ccc3c(c2)OCCO3)cc([C@@H]2O[C@H](CO)[C@@H](F)[C@H](O)[C@H]2O)c2c1CCO2
IC50 [1]: 7.5 nM
remaining at 10 min, 1 µM [2]: 91%
remaining at 10 min, 1 µM [3]: 94%
remaining at 10 min, 1 µM [4]: 2%

Cc1ccc([C@@H]2O[C@H](CO)[C@@H](F)[C@H](O)[C@H]2O)cc1Cc1cc2c(s1)CCN(C#N)C2
inhibition [10]: 76%

Cc1ccc([C@@H]2O[C@H](CO)[C@@H](F)[C@H](O)[C@H]2O)cc1Cc1cc2c(s1)CCN(C(=O)C1CCCC1)C2
inhibition at 2 h, 0.3 µM [9]: 49%
inhibition [10]: 59%

Cc1ccc([C@@H]2O[C@H](CO)[C@@H](F)[C@H](O)[C@H]2O)cc1Cc1cc2c(s1)CCN(C(=O)c1nccs1)C2
inhibition at 2 h, 0.3 µM [9]: 39%
inhibition [10]: 73%

Cc1cc(O)c([C@@H]2O[C@H](CO)[C@@H](F)[C@H](O)[C@H]2O)cc1Cc1cc2c(s1)CCN(C(=O)c1nccs1)C2
remaining at 10 min, 1 µM [2]: 69%
remaining at 10 min, 1 µM [3]: 66%
remaining at 10 min, 1 µM [4]: 91%

Cc1ncc2n1-c1ccc(Cl)cc1C(c1ccccc1F)=NC2 [MIDAZOLAM]
half-life at 1 µM [5]: 1 h
half-life at 1 µM [8]: 1.4 h

Cc1cc(O)c([C@@H]2O[C@H](CO)[C@@H](F)[C@H](O)[C@H]2O)cc1Cc1cc2c(s1)CCN(C#N)C2
IC50 [1]: 2.6 nM
remaining at 10 min, 1 µM [2]: 95%
remaining at 10 min, 1 µM [3]: 91%
remaining at 10 min, 1 µM [4]: 79%
half-life [11]: 0.99 h
clearance [12]: 149 mL/min/kg
Vd [13]: 3.79 L/kg
half-life [18]: 1.44 h
Cmax [14]: 13.7 ng/mL
Tmax [15]: 2.2 h
AUC(0-inf) [16]: 44.6 ng·h/mL
bioavailability [17]: 5%

From ChEMBL document CHEMBL4265969, “Design, synthesis and biological evaluation of (2S,3R,4R,5S,6R)-5-fluoro-6-(hydroxymethyl)-2-aryltetrahydro-2H-pyran-3,4-diols as potent and orally active SGLT dual inhibitors” (Bioorg Med Chem Lett, 2018)
